Assay results: patent US20070117770A1, “Human ribosomal DNA (rDNA) and ribosomal RNA (rRNA) nucleic acids and uses thereof” (Cylene Pharmaceuticals, Inc., priority 2005, published 2007)

Columns and labels:
Experiment in all cases: Protein kinase inhibition assay
Assay type in all cases: biochemical
DMPK(h) = DMPK(h) (Homo sapiens, UniProt Q09013); conditions: read-out: percent residual activity of DMPK(h)
Procedure: (§1) Certain compounds were tested for activity in protein kinase inhibition assays. All substrates were dissolved and diluted to working stocks in de-ionized water, apart from histone H1 (10× working stock in 20 mM MOPS pH 7.0), PDKtide (10× working stock in 50 mM Tris pH 7.0) ATF2 (which is typically stored at a 20× working stock in 50 mM Tris pH 7.5, 150 mM NaCl, 0.1 mM EGTA, 0.03% Brij-35, 50% glycerol, 1 mM benzamidine, 0.2 mM PMSF and 0.1% R-mercaptoethanol), KKLNRTLSFAEPG (SEQ ID NO:203) and RRRLSFAEPG (SEQ ID NO:204) (50 mM HEPES pH 7.4) and GGEEEEYFELVKKKK (SEQ ID NO:205) (20 mM MOPS pH 7.0). All kinases were pre-diluted to a 10× working concentration prior to addition into the assay. The composition of the dilution buffer for each kinase is detailed below.

LKB1(h) = LKB1(h) (Homo sapiens, UniProt Q15831); conditions: read-out: percent residual activity of LKB1(h)
Procedure: as §1

DAPK1(h) = DAPK1(h) (Homo sapiens, UniProt P53355); conditions: read-out: percent residual activity of DAPK1(h)
Procedure: as §1

PTK5(h) = PTK5(h) (Homo sapiens, UniProt P42685); conditions: read-out: percent residual activity of PTK5(h)
Procedure: as §1

NLK (h) = NLK (h) (Homo sapiens, UniProt Q9UBE8); conditions: read-out: percent residual activity of NLK (h)
Procedure: as §1

MELK(h) = MELK(h) (Homo sapiens, UniProt Q14680); conditions: read-out: percent residual activity of MELK(h)
MELK(h), sequence (Q14680 whole entry): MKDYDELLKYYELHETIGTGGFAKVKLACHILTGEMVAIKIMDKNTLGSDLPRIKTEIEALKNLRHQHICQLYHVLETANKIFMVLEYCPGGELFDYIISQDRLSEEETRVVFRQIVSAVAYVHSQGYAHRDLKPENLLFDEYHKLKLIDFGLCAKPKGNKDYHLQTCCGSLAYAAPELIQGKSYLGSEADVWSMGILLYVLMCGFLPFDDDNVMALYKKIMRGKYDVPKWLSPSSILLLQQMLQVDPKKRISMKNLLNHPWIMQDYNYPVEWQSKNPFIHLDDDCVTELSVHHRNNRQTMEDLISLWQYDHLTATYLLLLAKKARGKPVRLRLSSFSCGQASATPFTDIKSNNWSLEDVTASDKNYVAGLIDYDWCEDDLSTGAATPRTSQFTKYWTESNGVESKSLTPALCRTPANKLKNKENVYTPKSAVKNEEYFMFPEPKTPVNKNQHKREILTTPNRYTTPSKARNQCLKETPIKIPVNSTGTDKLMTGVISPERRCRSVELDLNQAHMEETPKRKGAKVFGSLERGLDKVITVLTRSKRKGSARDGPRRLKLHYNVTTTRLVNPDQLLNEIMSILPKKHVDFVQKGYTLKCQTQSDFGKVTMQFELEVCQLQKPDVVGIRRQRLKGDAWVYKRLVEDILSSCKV
Procedure: as §1

STK33(h) = STK33(h) (Homo sapiens, UniProt Q9BYT3); conditions: read-out: percent residual activity of STK33(h)
Procedure: as §1

EphB1(h) = EphB1(h) (Homo sapiens, UniProt P54762); conditions: read-out: percent residual activity of EphB1(h)
Procedure: as §1

SRPK2(h) = SRPK2(h) (Homo sapiens, UniProt P78362); conditions: read-out: percent residual activity of SRPK2(h)
SRPK2(h), sequence (P78362 whole entry): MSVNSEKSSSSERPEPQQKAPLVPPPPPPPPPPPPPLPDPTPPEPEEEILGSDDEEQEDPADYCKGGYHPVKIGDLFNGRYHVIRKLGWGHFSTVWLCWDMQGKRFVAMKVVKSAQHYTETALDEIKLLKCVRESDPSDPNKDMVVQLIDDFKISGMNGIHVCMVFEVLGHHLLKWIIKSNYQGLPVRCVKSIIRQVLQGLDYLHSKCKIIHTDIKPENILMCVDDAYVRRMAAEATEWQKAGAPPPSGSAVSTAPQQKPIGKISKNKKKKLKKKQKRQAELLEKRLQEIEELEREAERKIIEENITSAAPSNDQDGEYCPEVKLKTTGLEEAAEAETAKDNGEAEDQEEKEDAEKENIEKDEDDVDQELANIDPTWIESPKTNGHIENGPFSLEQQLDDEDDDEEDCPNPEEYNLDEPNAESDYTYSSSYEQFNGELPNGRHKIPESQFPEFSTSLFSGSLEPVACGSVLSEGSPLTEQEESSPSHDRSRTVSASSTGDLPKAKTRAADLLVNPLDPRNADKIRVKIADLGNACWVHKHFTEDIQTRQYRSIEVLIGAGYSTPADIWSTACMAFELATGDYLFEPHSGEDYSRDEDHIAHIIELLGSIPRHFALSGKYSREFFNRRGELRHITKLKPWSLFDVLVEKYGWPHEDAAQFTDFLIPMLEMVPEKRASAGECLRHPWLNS
Procedure: as §1

ARK5(h) = ARK5(h) (Homo sapiens, UniProt O60285); conditions: read-out: percent residual activity of ARK5(h)
ARK5(h), sequence (O60285 whole entry): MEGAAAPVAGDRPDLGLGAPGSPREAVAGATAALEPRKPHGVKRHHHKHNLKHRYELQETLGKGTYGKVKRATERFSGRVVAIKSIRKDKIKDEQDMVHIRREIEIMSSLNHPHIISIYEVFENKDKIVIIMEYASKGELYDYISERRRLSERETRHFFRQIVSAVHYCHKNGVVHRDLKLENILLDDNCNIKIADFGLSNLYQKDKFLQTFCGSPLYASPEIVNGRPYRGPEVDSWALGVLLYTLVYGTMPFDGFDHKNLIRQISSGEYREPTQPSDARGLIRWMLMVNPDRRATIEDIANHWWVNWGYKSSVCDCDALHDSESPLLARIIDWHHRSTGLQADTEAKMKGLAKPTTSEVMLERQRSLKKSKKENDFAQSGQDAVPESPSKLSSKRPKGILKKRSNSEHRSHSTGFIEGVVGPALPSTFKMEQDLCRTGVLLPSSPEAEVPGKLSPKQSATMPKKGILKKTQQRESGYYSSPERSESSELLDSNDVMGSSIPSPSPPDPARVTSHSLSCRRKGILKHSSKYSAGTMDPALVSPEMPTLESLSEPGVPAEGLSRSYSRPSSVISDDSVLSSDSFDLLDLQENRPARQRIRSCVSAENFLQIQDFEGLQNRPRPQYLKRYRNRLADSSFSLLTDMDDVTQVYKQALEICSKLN
Procedure: as §1

PAK5(h) = PAK5(h) (Homo sapiens, UniProt Q9P286); conditions: read-out: percent residual activity of PAK5(h)
PAK5(h), sequence (Q9P286 whole entry): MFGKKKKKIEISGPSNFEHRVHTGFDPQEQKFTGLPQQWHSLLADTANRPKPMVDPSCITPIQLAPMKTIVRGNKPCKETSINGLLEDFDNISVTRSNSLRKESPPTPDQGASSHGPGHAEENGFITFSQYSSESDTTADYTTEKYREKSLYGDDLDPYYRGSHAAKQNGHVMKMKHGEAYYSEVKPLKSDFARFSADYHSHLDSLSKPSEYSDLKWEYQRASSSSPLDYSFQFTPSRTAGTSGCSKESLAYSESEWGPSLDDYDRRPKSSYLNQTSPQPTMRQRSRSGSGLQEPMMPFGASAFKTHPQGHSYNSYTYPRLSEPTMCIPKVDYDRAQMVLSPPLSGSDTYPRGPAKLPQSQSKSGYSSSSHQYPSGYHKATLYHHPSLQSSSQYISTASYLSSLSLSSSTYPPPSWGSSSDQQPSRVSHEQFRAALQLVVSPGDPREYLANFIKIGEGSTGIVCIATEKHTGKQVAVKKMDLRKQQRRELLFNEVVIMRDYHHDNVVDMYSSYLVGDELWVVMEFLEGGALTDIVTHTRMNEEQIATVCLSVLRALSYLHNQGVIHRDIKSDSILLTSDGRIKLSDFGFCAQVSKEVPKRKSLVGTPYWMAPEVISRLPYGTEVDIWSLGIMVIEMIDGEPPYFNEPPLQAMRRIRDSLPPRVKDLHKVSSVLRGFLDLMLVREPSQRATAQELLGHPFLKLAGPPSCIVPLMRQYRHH
Procedure: as §1

DRAK1(h) = molecular target: T1, DRAK1(h) (Homo sapiens, UniProt Q9UEE5); conditions: for remaining activity at 2.5 µM: read-out: percent residual activity of DRAK1(h)
T1 sequence (Q9UEE5 1-414): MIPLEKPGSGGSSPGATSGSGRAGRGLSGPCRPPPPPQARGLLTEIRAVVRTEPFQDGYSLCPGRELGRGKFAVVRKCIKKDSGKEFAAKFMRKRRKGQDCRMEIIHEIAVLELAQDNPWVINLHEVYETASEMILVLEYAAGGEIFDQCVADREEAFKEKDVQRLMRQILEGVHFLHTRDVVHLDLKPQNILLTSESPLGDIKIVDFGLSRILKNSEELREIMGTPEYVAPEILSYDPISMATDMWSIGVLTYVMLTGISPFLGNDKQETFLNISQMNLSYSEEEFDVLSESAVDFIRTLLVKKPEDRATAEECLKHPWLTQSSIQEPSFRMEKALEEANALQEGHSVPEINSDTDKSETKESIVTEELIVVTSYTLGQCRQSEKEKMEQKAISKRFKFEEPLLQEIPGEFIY
Procedure: as §1

HIPK3(h) = HIPK3(h) (Homo sapiens, UniProt Q9H422); conditions: read-out: percent residual activity of HIPK3(h)
Procedure: as §1

PAK3(h) = PAK3(h) (Homo sapiens, UniProt O75914); conditions: read-out: percent residual activity of PAK3(h)
PAK3(h), sequence (O75914 whole entry): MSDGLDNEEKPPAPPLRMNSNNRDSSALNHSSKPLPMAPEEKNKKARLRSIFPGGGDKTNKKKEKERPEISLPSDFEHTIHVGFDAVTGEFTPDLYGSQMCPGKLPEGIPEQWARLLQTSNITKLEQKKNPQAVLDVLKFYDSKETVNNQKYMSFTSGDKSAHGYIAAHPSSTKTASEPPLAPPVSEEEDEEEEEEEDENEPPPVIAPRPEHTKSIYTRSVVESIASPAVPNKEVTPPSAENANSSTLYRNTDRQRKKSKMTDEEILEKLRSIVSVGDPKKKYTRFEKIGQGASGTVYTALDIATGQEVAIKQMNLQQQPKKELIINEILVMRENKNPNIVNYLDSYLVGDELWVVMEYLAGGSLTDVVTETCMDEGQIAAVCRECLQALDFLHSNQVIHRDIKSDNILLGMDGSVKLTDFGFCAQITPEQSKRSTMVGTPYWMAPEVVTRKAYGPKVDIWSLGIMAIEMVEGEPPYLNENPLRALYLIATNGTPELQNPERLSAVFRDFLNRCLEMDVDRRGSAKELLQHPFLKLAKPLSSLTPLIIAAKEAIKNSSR
Procedure: as §1

PKG1α(h) = PKG1α(h) (Homo sapiens, UniProt Q13976); conditions: read-out: percent residual activity of PKG1α(h)
Procedure: as §1

GRK5(h) = GRK5(h) (Homo sapiens, UniProt P34947); conditions: read-out: percent residual activity of GRK5(h)
Procedure: as §1

TSSK1(h) = TSSK1(h) (Homo sapiens, UniProt Q9BXA7); conditions: read-out: percent residual activity of TSSK1(h)
TSSK1(h), sequence (Q9BXA7 whole entry): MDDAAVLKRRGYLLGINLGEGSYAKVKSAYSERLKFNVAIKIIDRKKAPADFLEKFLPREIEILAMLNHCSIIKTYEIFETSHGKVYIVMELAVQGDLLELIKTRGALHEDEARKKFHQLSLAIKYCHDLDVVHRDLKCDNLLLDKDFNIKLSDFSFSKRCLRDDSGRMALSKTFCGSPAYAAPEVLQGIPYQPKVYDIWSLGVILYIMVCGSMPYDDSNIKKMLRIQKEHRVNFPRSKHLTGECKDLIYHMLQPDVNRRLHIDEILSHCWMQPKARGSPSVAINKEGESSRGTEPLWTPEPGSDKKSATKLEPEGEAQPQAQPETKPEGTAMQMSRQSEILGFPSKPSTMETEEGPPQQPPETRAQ
Procedure: as §1

EphA1(h) = EphA1(h) (Homo sapiens, UniProt P21709); conditions: read-out: percent residual activity of EphA1(h)
Procedure: as §1

FAK(h) = FAK(h) (Homo sapiens, UniProt Q05397); conditions: read-out: percent residual activity of FAK(h)
Procedure: as §1

Flt4(h) = Flt4(h) (Homo sapiens, UniProt P35916); conditions: read-out: percent residual activity of Flt4(h)
Procedure: as §1

Mnk2(h) = Mnk2(h) (Homo sapiens, UniProt Q9HBH9); conditions: read-out: percent residual activity of Mnk2(h)
Procedure: as §1

EphA7(h) = EphA7(h) (Homo sapiens, UniProt Q15375); conditions: read-out: percent residual activity of EphA7(h)
EphA7(h), sequence (Q15375 28-998): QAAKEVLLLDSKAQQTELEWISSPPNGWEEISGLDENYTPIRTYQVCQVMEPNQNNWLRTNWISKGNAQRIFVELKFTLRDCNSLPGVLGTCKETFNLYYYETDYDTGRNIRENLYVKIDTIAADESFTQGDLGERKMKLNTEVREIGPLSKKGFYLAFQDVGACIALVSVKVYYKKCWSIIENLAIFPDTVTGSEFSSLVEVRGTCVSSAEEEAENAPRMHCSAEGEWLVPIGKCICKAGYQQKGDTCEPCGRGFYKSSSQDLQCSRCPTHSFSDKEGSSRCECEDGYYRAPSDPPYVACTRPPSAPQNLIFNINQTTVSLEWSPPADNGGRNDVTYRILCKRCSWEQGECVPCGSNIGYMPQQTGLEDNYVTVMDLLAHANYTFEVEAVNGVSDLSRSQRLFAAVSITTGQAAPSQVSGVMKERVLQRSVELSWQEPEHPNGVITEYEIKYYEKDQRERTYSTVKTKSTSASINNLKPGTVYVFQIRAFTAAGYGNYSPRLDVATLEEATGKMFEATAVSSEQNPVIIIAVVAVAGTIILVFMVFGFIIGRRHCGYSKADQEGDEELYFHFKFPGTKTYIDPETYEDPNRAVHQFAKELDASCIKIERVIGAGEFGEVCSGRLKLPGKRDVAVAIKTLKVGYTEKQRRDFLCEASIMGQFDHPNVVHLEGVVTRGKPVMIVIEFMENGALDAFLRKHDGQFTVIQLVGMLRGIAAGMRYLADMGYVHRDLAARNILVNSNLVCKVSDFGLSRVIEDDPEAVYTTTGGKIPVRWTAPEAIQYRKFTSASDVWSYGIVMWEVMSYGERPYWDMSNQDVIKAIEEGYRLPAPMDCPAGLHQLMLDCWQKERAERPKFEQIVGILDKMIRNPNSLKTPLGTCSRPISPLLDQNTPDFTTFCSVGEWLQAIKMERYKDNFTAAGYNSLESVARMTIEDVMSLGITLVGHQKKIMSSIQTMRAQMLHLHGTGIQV
Procedure: as §1

CK1γ3(h) = CK1γ3(h) (Homo sapiens, UniProt Q9Y6M4); conditions: read-out: percent residual activity of CK1γ3(h)
Procedure: as §1

DAPK2(h) = DAPK2(h) (Homo sapiens, UniProt Q9UIK4); conditions: read-out: percent residual activity of DAPK2(h)
DAPK2(h), sequence (Q9UIK4 whole entry): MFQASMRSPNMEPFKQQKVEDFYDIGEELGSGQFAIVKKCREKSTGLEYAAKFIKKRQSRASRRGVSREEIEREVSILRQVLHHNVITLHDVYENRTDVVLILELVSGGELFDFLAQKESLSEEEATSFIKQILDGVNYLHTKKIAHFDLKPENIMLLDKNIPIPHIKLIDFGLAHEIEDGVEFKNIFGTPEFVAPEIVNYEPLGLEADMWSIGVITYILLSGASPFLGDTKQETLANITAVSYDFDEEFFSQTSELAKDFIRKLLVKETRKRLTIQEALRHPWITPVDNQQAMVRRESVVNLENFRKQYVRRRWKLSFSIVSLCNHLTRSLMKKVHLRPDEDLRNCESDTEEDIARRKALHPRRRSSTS
Procedure: as §1

remaining activity at 2.5 µM (DMPK(h)) [%]	remaining activity at 2.5 µM (LKB1(h)) [%]	remaining activity at 2.5 µM (DAPK1(h)) [%]	remaining activity at 2.5 µM (PTK5(h)) [%]	remaining activity at 2.5 µM (NLK (h)) [%]	remaining activity at 2.5 µM (MELK(h)) [%]	remaining activity at 2.5 µM (STK33(h)) [%]	remaining activity at 2.5 µM (EphB1(h)) [%]	remaining activity at 2.5 µM (SRPK2(h)) [%]	remaining activity at 2.5 µM (ARK5(h)) [%]	remaining activity at 2.5 µM (PAK5(h)) [%]	remaining activity at 2.5 µM (DRAK1(h)) [%]	remaining activity at 2.5 µM (HIPK3(h)) [%]	remaining activity at 2.5 µM (PAK3(h)) [%]	remaining activity at 2.5 µM (PKG1α(h)) [%]	remaining activity at 2.5 µM (GRK5(h)) [%]	remaining activity at 2.5 µM (TSSK1(h)) [%]	remaining activity at 2.5 µM (EphA1(h)) [%]	remaining activity at 2.5 µM (FAK(h)) [%]	remaining activity at 2.5 µM (Flt4(h)) [%]	SMILES	further results
105	101	89	107	109	94	102	75	88	104	101	117	97	91	101	99	107	96	102	103	CC(=O)N1CCN(c2ccc3c(=O)c(C(=O)NCCN4CCCC4)c4n(C)c5ccccc5n4c3n2)CC1 [Compound B-1]	remaining activity at 2.5 µM (Mnk2(h)): 115%; remaining activity at 2.5 µM (EphA7(h)): 100%; remaining activity at 2.5 µM (CK1γ3(h)): 114%; remaining activity at 2.5 µM (DAPK2(h)): 102%
92	98	40	116	90	40	90	125	88	79	103	11	102	88	57	95	98	69	94	70	CN1CCCC1CCNC(=O)c1cn2c3c(c(N4CCC(c5cnccn5)C4)c(F)cc3c1=O)Oc1cc3ccccc3cc1-2 (stereo not shown) [Compound A-1]	inhibition at 2.5 µM (DRAK1(h)): > 80%; remaining activity at 2.5 µM (Mnk2(h)): 98%; remaining activity at 2.5 µM (EphA7(h)): 109%; remaining activity at 2.5 µM (CK1γ3(h)): 103%; remaining activity at 2.5 µM (DAPK2(h)): 109%
